Ten molecules from patent US20240208992A1, “MACROCYCLES AS CFTR MODULATORS” (Idorsia Pharmaceuticals Ltd, priority 2021, published 2024) can be followed below.

This assay has as its target human F508del-CFTR (Homo sapiens, UniProt P13569, DEL508-508). Briefly: F508del-CFTR cell surface expression (corrector activity), DiscoveRx ß-galactosidase complementation chemiluminescence assay in recombinant U2OS cell line.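 For all read-outs here: U2OS cells co-expressing ProLink-tagged F508del-CFTR and a membrane-anchored enzyme acceptor, where more surface CFTR restores β-galactosidase activity measured by chemiluminescence.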 As to conditions: U2OS cells, 16h compound incubation; for EC50: EC50, F508del-CFTR cell surface expression, geomean of several measurements; for Emax: U2OS, in relation to the Emax of the corrector lumacaftor (=100%), arithmetic mean.

Chain of human F508del-CFTR (P13569 with tags, fused parts or gaps DEL508-508): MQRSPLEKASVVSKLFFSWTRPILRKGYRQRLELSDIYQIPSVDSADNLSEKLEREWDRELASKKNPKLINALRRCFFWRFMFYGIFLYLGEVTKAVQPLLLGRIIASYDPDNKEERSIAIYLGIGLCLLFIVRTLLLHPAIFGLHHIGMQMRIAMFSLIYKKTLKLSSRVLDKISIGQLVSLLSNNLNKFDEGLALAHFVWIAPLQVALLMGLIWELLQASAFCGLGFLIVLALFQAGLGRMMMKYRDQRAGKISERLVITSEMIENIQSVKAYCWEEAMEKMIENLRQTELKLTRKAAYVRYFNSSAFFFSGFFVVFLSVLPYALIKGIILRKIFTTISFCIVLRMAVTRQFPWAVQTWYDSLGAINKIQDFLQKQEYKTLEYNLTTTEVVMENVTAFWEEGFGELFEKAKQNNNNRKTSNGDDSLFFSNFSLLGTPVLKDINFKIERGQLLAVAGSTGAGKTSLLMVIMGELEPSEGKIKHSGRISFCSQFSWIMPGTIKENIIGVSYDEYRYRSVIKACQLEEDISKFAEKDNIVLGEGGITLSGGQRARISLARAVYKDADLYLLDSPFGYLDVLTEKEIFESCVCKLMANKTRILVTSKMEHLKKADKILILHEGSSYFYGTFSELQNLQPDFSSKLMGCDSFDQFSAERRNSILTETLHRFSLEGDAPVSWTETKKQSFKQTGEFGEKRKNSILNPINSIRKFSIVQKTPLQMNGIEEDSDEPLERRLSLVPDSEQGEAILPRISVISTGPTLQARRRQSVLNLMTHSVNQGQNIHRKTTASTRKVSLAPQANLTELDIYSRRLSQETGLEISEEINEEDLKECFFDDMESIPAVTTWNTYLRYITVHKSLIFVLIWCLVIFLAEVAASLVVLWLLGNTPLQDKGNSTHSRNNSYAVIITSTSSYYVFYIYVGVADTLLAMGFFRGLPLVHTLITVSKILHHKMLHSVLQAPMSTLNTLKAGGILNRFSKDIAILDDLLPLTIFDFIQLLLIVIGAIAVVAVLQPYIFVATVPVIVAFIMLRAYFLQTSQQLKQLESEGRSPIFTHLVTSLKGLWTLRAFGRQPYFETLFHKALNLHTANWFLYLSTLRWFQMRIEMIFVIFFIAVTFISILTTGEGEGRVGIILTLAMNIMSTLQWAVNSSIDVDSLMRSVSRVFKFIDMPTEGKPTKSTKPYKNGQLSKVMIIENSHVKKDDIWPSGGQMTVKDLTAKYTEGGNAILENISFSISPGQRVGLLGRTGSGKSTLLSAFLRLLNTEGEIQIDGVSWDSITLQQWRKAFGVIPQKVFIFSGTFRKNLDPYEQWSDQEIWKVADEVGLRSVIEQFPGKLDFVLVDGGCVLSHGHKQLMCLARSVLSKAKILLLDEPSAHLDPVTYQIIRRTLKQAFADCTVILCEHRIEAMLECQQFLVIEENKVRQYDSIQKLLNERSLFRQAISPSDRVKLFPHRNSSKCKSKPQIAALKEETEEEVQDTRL

As usually defined, the EC50 is the midpoint of the concentration-response curve. The Emax is the maximal effect, on the per cent scale that the assay sets. For `CC(C)C[C@H]1C(=O)N(C)[C@@H](CC(F)F)C(=O)N[C@H](Cc2ccccc2)COc2ccc3ncc(F)cc3c2C(=O)N[C@H](C(=O)NCCc2noc(C3CC3)n2)CC(=O)N1C` [Example 802, (3S,7S,10S,13R)-13-benzyl-N-(2-(5-cyclopropyl-1,2,4-oxadiazol-3-yl)ethyl)-10-(2,2-difluoroethyl)-20-fluoro-7-isobutyl-6,9-dimethyl-1,5,8,11-tetraoxo-1,2,3,4,5,6,7,8,9,10,11,12,13,14-tetradecahydro-[1]oxa[4,7,10,14]tetraazacycloheptadecino[16,17-f]quinoline-3-carboxamide], the concentration for a half-maximal effect (EC50) was 0.723 µM and the Emax is 200%.

`CC[C@@H]1C(=O)N[C@H](Cc2ccccc2)COc2ccc3ncc(F)cc3c2C(=O)N[C@H](C(=O)NCCc2noc(C3CC3)n2)CC(=O)N(C)[C@@H](CC(C)C)C(=O)N1C` [Example 803, (3S,7S,10R,13R)-13-benzyl-N-(2-(5-cyclopropyl-1,2,4-oxadiazol-3-yl)ethyl)-10-ethyl-20-fluoro-7-isobutyl-6,9-dimethyl-1,5,8,11-tetraoxo-1,2,3,4,5,6,7,8,9,10,11,12,13,14-tetradecahydro-[1]oxa[4,7,10,14]tetraazacycloheptadecino[16,17-f]quinoline-3-carboxamide]: the EC50 was found to be 0.248 µM and the Emax is 355%.

Consider `CC(C)C[C@H]1C(=O)N(C)[C@H](Cc2nc(-c3ccc(F)cn3)no2)C(=O)N[C@H](Cc2ccccc2)COc2ccc3ncc(F)cc3c2C(=O)N[C@H](C(=O)NCCn2nnc(C3CC3)n2)CC(=O)N1C` [Example 804, (3S,7S,10R,13R)-13-benzyl-N-(2-(5-cyclopropyl-2H-tetrazol-2-yl)ethyl)-20-fluoro-10-((3-(5-fluoropyridin-2-yl)-1,2,4-oxadiazol-5-yl)methyl)-7-isobutyl-6,9-dimethyl-1,5,8,11-tetraoxo-1,2,3,4,5,6,7,8,9,10,11,12,13,14-tetradecahydro-[1]oxa[4,7,10,14]tetraazacycloheptadecino[16,17-f]quinoline-3-carboxamide], for which the EC50 amounted to 0.115 µM and the Emax was 360%.

Consider `CC(C)C[C@H]1C(=O)N2CCCC[C@@H]2C(=O)N[C@H](Cc2ccccc2)COc2ccc3ncc(F)cc3c2C(=O)N[C@H](C(=O)NCCc2cnn(C3CC3)n2)CC(=O)N1C` [Example 805, (9S,13S,19aR,22R)-22-benzyl-N-(2-(2-cyclopropyl-2H-1,2,3-triazol-4-yl)ethyl)-5-fluoro-13-isobutyl-12-methyl-7,11,14,20-tetraoxo-7,8,9,10,11,12,13,14,17,18,19,19a,20,21,22,23-hexadecahydro-16H-pyrido[2′,1′:6,7][1]oxa[4,7,10,14]tetraazacycloheptadecino[16,17-f]quinoline-9-carboxamide], for which the EC50 worked out at 0.191 µM and the maximum response (Emax) came out at 276%.

Turning to `COc1nc(C)cc2c1C(=O)N[C@H](C(=O)NCCn1nnc(C3CC3)n1)CC(=O)N(C)[C@@H](CC(C)C)C(=O)N(C)[C@H](CC(F)(F)F)C(=O)N[C@H](Cc1ccccc1)CO2` [Example 806, (3R,6R,9S,13S)-3-benzyl-N-(2-(5-cyclopropyl-2H-tetrazol-2-yl)ethyl)-9-isobutyl-16-methoxy-7,10,18-trimethyl-5,8,11,15-tetraoxo-6-(2,2,2-trifluoroethyl)-2,3,4,5,6,7,8,9,10,11,12,13,14,15-tetradecahydropyrido[3,4-p][1]oxa[4,7,10,14]tetraazacycloheptadecine-13-carboxamide], the EC50 came to 0.233 µM and the maximal effect (Emax) turned out to be 394%.

In the case of `Cc1cc(CCNC(=O)[C@@H]2CC(=O)N(C)[C@@H](CC(C)C)C(=O)N(C)[C@H](Cc3nc(-c4ccc(F)cn4)no3)C(=O)N[C@H](Cc3ccccc3)COc3ccc4ncc(F)cc4c3C(=O)N2)on1` [Example 807, (3S,7S,10R,13R)-13-benzyl-20-fluoro-10-((3-(5-fluoropyridin-2-yl)-1,2,4-oxadiazol-5-yl)methyl)-7-isobutyl-6,9-dimethyl-N-(2-(3-methylisoxazol-5-yl)ethyl)-1,5,8,11-tetraoxo-1,2,3,4,5,6,7,8,9,10,11,12,13,14-tetradecahydro-[1]oxa[4,7,10,14]tetraazacycloheptadecino[16,17-f]quinoline-3-carboxamide], the EC50 turned out to be 0.206 µM and the Emax is 358%.

As for `CC(C)C[C@H]1C(=O)N(C)[C@H](Cc2nc(-c3ccc(F)cn3)no2)C(=O)N[C@H](Cc2ccccc2)COc2ccc3ncc(F)cc3c2C(=O)N[C@H](C(=O)NCCc2nc(C3CC3)no2)CC(=O)N1C` [Example 808, (3S,7S,10R,13R)-13-benzyl-N-(2-(3-cyclopropyl-1,2,4-oxadiazol-5-yl)ethyl)-20-fluoro-10-((3-(5-fluoropyridin-2-yl)-1,2,4-oxadiazol-5-yl)methyl)-7-isobutyl-6,9-dimethyl-1,5,8,11-tetraoxo-1,2,3,4,5,6,7,8,9,10,11,12,13,14-tetradecahydro-[1]oxa[4,7,10,14]tetraazacycloheptadecino[16,17-f]quinoline-3-carboxamide], the EC50 is 0.116 µM and the Emax came out at 399%.

For `COc1cc(CCNC(=O)[C@@H]2CC(=O)N(C)[C@@H](CC(C)C)C(=O)N(C)[C@H](Cc3nc(C(F)(F)F)no3)C(=O)N[C@H](Cc3ccccc3)COc3cnc4ccc(F)cc4c3C(=O)N2)on1` [Example 809, (3S,7S,10R,13R)-13-benzyl-20-fluoro-7-isobutyl-N-(2-(3-methoxyisoxazol-5-yl)ethyl)-6,9-dimethyl-1,5,8,11-tetraoxo-10-((3-(trifluoromethyl)-1,2,4-oxadiazol-5-yl)methyl)-1,2,3,4,5,6,7,8,9,10,11,12,13,14-tetradecahydro-[1]oxa[4,7,10,14]tetraazacycloheptadecino[17,16-c]quinoline-3-carboxamide], the EC50 was determined as 0.01 µM and the Emax worked out at 391%.

Turning to `COc1cc(CCNC(=O)[C@@H]2CC(=O)N(C)[C@@H](CC(C)C)C(=O)N(C)[C@@H](Cc3nc(C(F)(F)F)no3)C(=O)N[C@H](Cc3ccccc3)COc3cnc4ccc(F)cc4c3C(=O)N2)on1` [Example 810, (3S,7S,10S,13R)-13-benzyl-20-fluoro-7-isobutyl-N-(2-(3-methoxyisoxazol-5-yl)ethyl)-6,9-dimethyl-1,5,8,11-tetraoxo-10-((3-(trifluoromethyl)-1,2,4-oxadiazol-5-yl)methyl)-1,2,3,4,5,6,7,8,9,10,11,12,13,14-tetradecahydro-[1]oxa[4,7,10,14]tetraazacycloheptadecino[17,16-c]quinoline-3-carboxamide], the EC50 worked out at 0.161 µM and the Emax turned out to be 285%.

As to `CC(C)C[C@H]1C(=O)N(C)[C@H](Cc2nc(C(F)(F)F)no2)C(=O)N[C@H](Cc2ccccc2)COc2cnc3ccc(F)cc3c2C(=O)N[C@H](C(=O)NCCc2noc(C3CC3)n2)CC(=O)N1C` [Example 811, (3S,7S,10R,13R)-13-benzyl-N-(2-(5-cyclopropyl-1,2,4-oxadiazol-3-yl)ethyl)-20-fluoro-7-isobutyl-6,9-dimethyl-1,5,8,11-tetraoxo-10-((3-(trifluoromethyl)-1,2,4-oxadiazol-5-yl)methyl)-1,2,3,4,5,6,7,8,9,10,11,12,13,14-tetradecahydro-[1]oxa[4,7,10,14]tetraazacycloheptadecino[17,16-c]quinoline-3-carboxamide], the 50% effective concentration (EC50) was determined as 0.019 µM and the Emax came out at 333%.
